Measurements taken from patent publication US6017958A, “Method of treating malignant tumors with thyroxine analogues having no significant hormonal activity” (Octamer, Inc., priority 1997, dated 2000).

Assays:
[1] = test system: seven human cancer cell lines; assay: Cytocidal action on human cancer cell lines; type: cell-based
Description: Seven human cancer cell lines were obtained from the American Tissue Culture Collection (Rockville, Md.) and maintained in the recommended growth media. Cells were seeded into wells (2 cm^2) at a density of 2×10^4 cells/cm^2. Various concentrations of Compounds 1-13 were added to the media at the time of seeding.
The cultures were incubated for 72 hours at 37° C. (5% CO2 atmosphere). Following incubation, cells were detached with trypsin and counted in a hemocytometer.

[2] = test system: E-ras 20 cells (E-ras transformed bovine endothelial cells); assay: Tumorigenicity of pretreated E-ras 20 cells in athymic nude mice; type: in vivo, bovine cells in nude mice; settings: 10 μM, 4 days pretreatment; tumor size at day 25
Description: E-ras transformed bovine endothelial cells (Bauer et al., 1996, Intl. J. Oncology 8:239-252) were exposed to 10 μM DIME for […]. The DIME-treated cells (10^5 or 10^6 cells/100 μL) were injected subcutaneously into nude mice and tumor progression followed for 25 days.
Tumorigenicity of E-ras 20 Cells in athymic nude mice was assayed as described previously. Bauer et al., 1996, "Modification of growth related enzymatic pathways and apparent loss of tumorigenicity of a ras-transformed bovine endothelial cell line by treatment with 5-iodo-6-amino-1,2-benzopyrone (INH2 BP)" Intl. J. Oncol. 8:239-252. The in vivo antitumorigenic action of DIME was assayed on athymic mice inoculated with 10^6 MDA-MB-231 cells, as in the tumorgenicity assay. In about 10-14 days when subcutaneous tumors appeared, DIME treatment consisting of p.o. administration of DIME suspension (once a day) was commenced and continued for 28-32 days as reported, Kun et al., 1996, "Induction of tumor apotosis by methyl-3,5-diiodo-4-(4'-methoxyphenoxy) benzoate (DIME)", Abstract No. 102, Int. J. Oncol. 9:supplement 829.
The structural specificity of DIME and its homologs and analogs can be assessed by examining Table 7 and Table 8. We have prepared 17 novel structural analogs of DIME and compared the antitumor activity of 10 of the compounds (Table 8) which appears sufficient to draw some general conclusions. The biological assay chosen was the determination of antitumorigenic action of the drugs on the in vivo tumorigenicity of E-ras cells in nude mice, Bauer et al., 1996, "Modification of growth related enzymatic pathways and apparent loss of tumorigenicity of a ras-transformed bovine endothelial cell line by treatment with 5-iodo-6-amino-1,2-benzopyrone (INH2 BP)" Intl. J. Oncol. 8:239-252. E-ras 20 cells (10^5 or 10^6) were incubated with 10 μM DIME or analogs for 4 days, then 10^5 and 10^6 cells were inoculated subcutaneously into nude mice (5 per test) and rates of tumor formation quantitated by direct tumor volume measurements (cf. 2). […] Identical antitumorigenic tests were performed with nine DIME analogs and taking the effect of DIME as 100% (comparing tumor sizes at day 25) the antitumor efficacy was calculated as percent of DIME activity. […] Results summarized in Table 8 illustrate that substituents in R1 and R2 determine antitumor efficacy.
The efficacy of DIME analogs on in vivo tumorigenicity of Eras 20 cells i
athymic mice was compared to that of DIME (compound 1) which was taken as
100, determining the size of tumor reduction at day 25. Pretreatment with
DIME or its analogs (Table 7) was with 10 μM for 4 days prior to s.c.

[3] = test system: microtubule protein (MTP); assay: Microtubule protein (MTP) polymerization optical test; type: biochemical, bovine or rabbit; settings: for Percent inhibition of initial velocity of microtubule assembly: 10 μM, 1 mM GTP, 37° C.
Description: Preparation of MTP and an optical test for polymerization was adopted from published methods, Gaskin, et al., 1974, "Turbidimetric studies of the in vitro assembly and disassembly of porcine neurotubules", J. Mol. Biol. 89:737-758; Tiwari, et al., 1993, "A pH and temperature-dependent cycling method that doubles the yield of microtubule protein", Anal. Biochem. 215:96-103. Bovine or rabbit brain was homogenized in an equal volume of ice cold buffer containing 100 mM Pipes/K^+ (pH 7.4), 4 mM EGTA, 1 mM MgCl2, 0.5 mM DTT and 0.1 mM PMSF, and centrifuged at 39,000 g for 1 hour at 4° C. To the supernatant, DMSO (8% final concentration) and GTP (1 mM final concentration) were added, followed by incubation at 37° C. for 30 minutes. Microtubules were pelleted at 100,000 g at 37° C for 30 minutes. The pellets were incubated on ice for 15 minutes, followed by resuspension in ice cold PEM buffer (100 mM Pipes/K+(pH 6.9), 1 mM EGTA, 1 mM MgCl2). This warm polymerization and cold depolymerization cycle was repeated once more and the cold, resuspended monomeric MTP (8-10 mg/ml protein) was used for the optical test for polymerization kinetics. Both rabbit or bovine brain yielded identical MTP preparations.
The composition of the optical test is described in the legends of Figures and Table 12. The polymerization reaction was started by the addition of 100 μl of MTP solution (equivalent to 0.8-1.0 mg protein) and initial linear rates of increase in absorbance at 350 nm followed and recorded at 37° C. (see FIG. 1) in a Perkin-Elmer 552 double beam spectrophotometer, equipped with a thermostatically controlled cuvette holder.
[…] Microtubule assembly at 37° C. was monitored at λ=350 nm and initial velocities were calculated as mA350 /min. […] The values are averages of duplicate assays.

protein phosphatase 2A = assay: Activation of purified protein phosphatase 2A (32P-histone H1 dephosphorylation); type: biochemical; settings: 50 μM
Description: 2.1 Preparation of ^32 P-labeled Histone H1 Substrate
Histone H1 was phosphorylated with protein kinase C (Upstate Biotechnology,Inc., Lake Placid, N.Y.) in a volume of 100 μL according to standard protocols. Alternatively, histone H1 was phosphorylated with p34cdc2 kinase purified from rapidly multiplying Mytilus Edulis embryos at 4-8 stage after isolation with the p^13 -Suc agarose technique (Smythe and Newport, 1992, "Coupling of Mitosis to the Completion of S Phase in Xenopus Occurs via Modulation of the Tyrosine Kinase that Phosphorylates p34cdc2," Cell 68:787-797).
125 ng purified protein phosphatase 2A (Upstate Biotechnology, Inc., Lake Placid, N.Y.; Usui et al., 1983, J. Biol. Chem. 258:10455-10463) was preincubated with thyroxine analogue (50 μM) in buffer (20 mM MOPS or Tris, pH 7.5, 1 mM MgCl2, 60 μM β-mercaptoethanol) for 10 min. at 23° C. Total reaction volume was 20 μL. ^32 P-labeled histone H1 substrate (10 μg, 10^5 cpm) was added and the dephosphorylation reaction allowed to proceed for 5 min. at 23° C., after which time the reaction was quenched by addition of 2 μL Laeimli buffer. An identical reaction containing 125 ng untreated protein phosphatase 2A was run as a control.
Phosphorylated and dephosphorylated histone H1 were separated by gel electrophoresis (12% SDS-PAGE), bands containing phosphorylated histone H1 excised and assayed for ^32 P activity via scintillation counter.
The velocity of dephosphorylation in 5 min. is an indication of the initial velocity (Vinit) of the dephosphorylation reaction.

MDA-MD-231 cells = assay: Inhibition of tumor cell growth; type: cell-based, human; settings: 3 days; for Cells (growth): control 0.95
Description: MDA-MD-231 human cancer cells were obtained from the American Tissue Culture Collection (Rockville, Md.) and maintained in the recommended growth media. Cells were grown in the presence of various concentrations of Compounds 1 and 14 for 3 days at 37° C.

MDA-MB-231 cells = assay: Immunocytochemistry of mitotic spindle and spindle-associated proteins; type: cell-based, human; settings: 100 nM, 18 hrs; data not shown
Description: Cells were fixed in methanol at -20° C. for 5 min. The primary antibody was mouse monoclonal anti-beta tubulin (Amersham) and secondary antibody from goat, conjugated to fluorescein isothiocyanate from Cappel (Durham, N.C., USA). The DNA of nuclei was stained by 10 min of incubation in 0.05 μg/ml 4'-6-diamidono-2-phenylindole (DAPI). Stained cells were viewed with either a Zeiss 40xPlan-Neofluar or a Nikon 60xPlanApo objective. For classification of cells in the mitotic phase, prophase and metaphase were combined into a single category, because it was difficult to distinguish late prophase from metaphase.
In preliminary studies (data not shown) we have also studied the behavior of certain spindle-associated proteins by the immunocytologic technique.

Structure (SMILES)	Efficacy (inhibition of E-ras 20 tumorigenicity, DIME = 100) [2]	Percent inhibition of initial velocity of microtubule assembly [3]	further results
CCOc1ccc(Oc2c(I)cc(C(=O)OC)cc2I)cc1 [Compound 2, Methyl 3,5-diiodo-4-(4'-ethoxyphenoxy)benzoate]	93%	76%	Emax ([1]; 72 hours, human cancer cells, read-out: maximal cytocidal activity as compared to DIME): 25 to 30%
CCCOc1ccc(Oc2c(I)cc(C(=O)OC)cc2I)cc1 [Compound 3, Methyl 3,5-diiodo-4-(4'-n-propoxyphenoxy)benzoate]	44%	–	activity in cellular assays and in vivo [1]: completely inactive; activation of protein phosphatase 2A (protein phosphatase 2A): did not activate; Activity/5 min (initial velocity of histone H1 dephosphorylation) (protein phosphatase 2A; 10 min preincubation, control 10217 ± 1708, average of three samples): 7521 ± 1562 cpm
CCCCOc1ccc(Oc2c(I)cc(C(=O)OC)cc2I)cc1 [Compound 4, Methyl 3,5-diiodo-4-(4'-n-butoxyphenoxy)benzoate]	4%	8%	–
CCOC(=O)c1cc(I)c(Oc2ccc(OC)cc2)c(I)c1 [Compound 5, Ethyl 3,5-diiodo-4-(4'-methoxyphenoxy)benzoate]	83%	35%	activity in cellular assays and in vivo [1]: completely inactive
COc1ccc(Oc2c(I)cc(C(=O)O)cc2I)cc1 [Compound 6, 3,5-diiodo-4-(4'-methoxyphenoxy)benzoic acid]	45%	0%	inhibitory effect on MTP polymerization ([3]; methyl ester replaced): completely abolishes the inhibitory effect on MTP polymerization
COc1ccc(Oc2c(I)cc(C(N)=O)cc2I)cc1 [Compound 7, 3,5-diiodo-4-(4'-methoxyphenoxy)benzamide]	53%	43%	–
CNC(=O)c1cc(I)c(Oc2ccc(OC)cc2)c(I)c1 [Compound 8, 3,5-diiodo-4-(4'-methoxyphenoxy)-N-methyl benzamide]	22%	–	–
COc1ccc(Oc2c(I)cc(C(=O)N(C)C)cc2I)cc1 [Compound 9, 3,5-diiodo-4-(4'-methoxyphenoxy)-N,N-dimethyl benzamide]	64%	6%	–
COC(=O)c1cc(I)c(Oc2ccc(O)cc2)c(I)c1 [Compound 10, Methyl 3,5-diiodo-4-(4'-hydroxyphenoxy) benzoate]	14%	–	–
COC(=O)c1cc(I)c(Oc2ccc(OC)cc2Cl)c(I)c1 [Compound 14, Methyl 3,5-diiodo-4-(2'-chloro-4'-methoxyphenoxy)benzoate]	–	–	Cells (growth) (MDA-MD-231 cells; 0.5 μM): 0.95 ×10^6; Cells (growth) (MDA-MD-231 cells; 1.0 μM): 0.71 ×10^6; Cells (growth) (MDA-MD-231 cells; 2.0 μM): 0.20 ×10^6; inhibitory activity as compared to DIME (MDA-MD-231 cells): about 25%
COC(=O)c1cc(I)c(Oc2ccc(OC(F)(F)F)cc2)c(I)c1 [Compound 18]	–	7%	–
C=C1[C@@H](O)[C@@H]2O[C@]3(CC[C@H](/C=C/[C@@H](C)[C@@H]4CC(C)=C[C@@]5(O[C@H](C[C@@](C)(O)C(=O)O)CC[C@H]5O)O4)O3)CC[C@H]2O[C@@H]1[C@@H](O)C[C@H](C)[C@H]1O[C@@]2(CCCCO2)CC[C@H]1C [okadaic acid, reference compound]	–	–	cdc-2 kinase- and pp2a-spindle association (MDA-MB-231 cells): abolished only cdc-2 kinase- and pp2a-spindle association
